Data reported in PubChem BioAssay (NCI).
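Results reflect a 48-hour exposure of cells in 96-well plates to compound at five concentrations. The concentration for full growth arrest is given as TGI.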

Experiments:
Experiment in all cases: NCI tumour cell line growth inhibition, 48 h
[1] = test system: HS 578T breast
[2] = test system: COLO 205 colon
[3] = test system: SK-MEL-2 melanoma
[4] = test system: A549 NSCLC
[5] = test system: SW-620 colon
[6] = test system: NCI-H522 lung
[7] = test system: SK-MEL-28 melanoma
[8] = test system: HOP-92 NSCLC
[9] = test system: TK-10 renal
[10] = test system: UO-31 renal
[11] = test system: HCT-116 colon
[12] = test system: NCI-H226 lung
[13] = test system: MDA-N

SMILES | TGI [1] [µM] | TGI [2] [µM] | TGI [3] [µM] | TGI [4] [µM] | TGI [5] [µM] | TGI [6] [µM] | TGI [7] [µM] | TGI [8] [µM] | TGI [9] [µM] | TGI [10] [µM] | TGI [11] [µM] | TGI [12] [µM] | TGI [13] [µM]
Nc1[nH]c(=S)c2c(N)n[nH]c2c1C(=O)Nc1ccc(Cl)cc1 | > 100 | > 100 | > 100 | > 100 | > 100 | > 100 | > 100 | > 100 | > 100 | > 100 | > 100 | > 100 | > 100
CC[C@H]1C=CCC[C@@]2(C[C@@H]3CC[C@@H]4[C@H](C(=O)OCCCCCCCCCCCCCCCC(=O)N(CCCNC(C)=O)C[C@H](CCNC(C)=O)OC(C)=O)[C@]5(CCC[C@@H](C)O5)NC(=[N+]34)N2)O1 | 1.72 | 0.955 | 0.338 | 1.36 | 2.14 | 0.287 | 2.52 | 0.32 | 2.07 | 2.46 | 1.24 | 1.88 | 1.36
COc1cc(Nc2nc3ccccc3nc2C(C)C)cc(OC)c1OC | > 100 | > 100 | > 100 | > 100 | > 100 | > 100 | > 100 | > 100 | > 100 | > 100 | > 100 | > 100 | > 100
COc1ccc(/C=C(/c2ccccc2)c2c(C)cc(C)c(/C(=C\c3ccc(OC)cc3)c3ccccc3)c2N=Nc2cc(C)cc(C)c2)cc1 | > 100 | 24.3 | 21.8 | > 100 | > 100 | > 64.1 | > 100 | > 100 | > 74.4 | > 100 | > 87.8 | > 100 | > 100
C[N+](C)(C)C(C1=CCCC1=O)c1ccccc1 (centres undefined) | 66.3 | > 100 | > 100 | > 100 | 70.4 | 35 | > 100 | 85.3 | > 100 | > 100 | 32.1 | > 100 | > 100
CC(=O)OCCOCCN1CCN(c2c(O)c3c(c(O)c2Cl)C(=O)C=CC3=O)CC1 | 7.59 | 0.68 | 3.26 | 3.94 | 0.475 | 0.583 | 2.22 | 0.822 | 1.62 | 2.47 | 0.72 | 5.89 | 1.79
Cc1cc(C)c2c(=O)cc(-c3ccc4ccccc4c3)[nH]c2n1 | > 100 | 48.1 | > 100 | > 100 | > 100 | 72.5 | > 100 | 78.8 | > 100 | > 100 | > 69.9 | > 100 | 17.2
CC(=O)OC(=C(C#N)C#N)c1nccnc1C(C)=O | > 20 | 11.5 | > 20 | > 20 | > 20 | > 20 | > 20 | > 20 | – | > 20 | – | 13.7 | 17.3
CCOC(=O)c1cn2c(ccc3sc4ccccc4c(=O)c32)n1 | > 100 | > 100 | – | > 100 | > 100 | > 100 | > 100 | > 100 | > 100 | > 100 | > 100 | > 100 | > 100
CCn1c(=O)c2c3cc(OC(C)=O)ccc3oc2c2ccc(OC(C)=O)cc21 | > 100 | 55.6 | – | > 100 | > 100 | > 100 | > 100 | 90.5 | > 100 | 83 | > 100 | > 100 | > 100
Cc1ccc(S(=O)(=O)N2CCCSCCN(S(=O)(=O)c3ccc(C)cc3)CCCSCC2)cc1 | > 100 | > 100 | > 100 | > 100 | > 100 | – | > 100 | > 100 | > 100 | > 100 | > 100 | > 100 | > 100
Cc1nc2ccccc2c(=O)n1/N=C/c1ccc(N(C)C)cc1 | 54 | > 100 | > 100 | > 100 | > 100 | > 100 | > 100 | > 100 | > 100 | – | > 100 | > 100 | > 100
C=CCN1C[C@@H](C)N([C@@H](c2ccc(C(=O)N(CC)CC)cc2)c2cccc(OC)c2)C[C@@H]1C | > 100 | > 100 | > 100 | > 100 | > 100 | > 100 | > 100 | > 100 | – | > 100 | > 100 | > 100 | > 100
Cc1ccc(NC(=O)/C(=N\NC(N)=O)c2c(O)c3ccccc3[nH]c2=O)cc1 | > 100 | > 100 | > 100 | > 100 | > 100 | – | > 100 | > 100 | – | > 100 | > 100 | > 100 | > 100
O=c1[nH]c(=O)n2n1C1C=CC2CC1 | > 100 | > 100 | > 100 | > 100 | > 100 | – | > 100 | > 100 | > 100 | > 100 | > 100 | > 100 | > 100
O=c1c2c3c(sc2nc2n1N=C(c1ccc([N+](=O)[O-])cc1)CS2)CCCC3 | > 100 | > 100 | – | > 100 | > 100 | > 100 | > 100 | > 100 | > 100 | > 100 | > 100 | > 100 | > 100
CC(=O)c1ccccc1NS(=O)(=O)c1ccc2nc(C)n(NS(=O)(=O)c3ccccc3C(C)=O)c(=O)c2c1 | > 100 | > 100 | > 100 | – | > 100 | > 100 | > 100 | > 100 | > 100 | > 100 | > 100 | > 100 | > 100
COc1ccc(-c2nc3cc(C(F)(F)F)ccc3n2CC2CCCN3CCCCC23)cc1 (centres undefined) | 31.1 | – | 28.9 | – | 28.5 | 29.2 | 28.2 | 27.9 | 30.2 | 38.8 | 33.6 | 32.3 | 33.4
CCOC(=O)C1=C(C)NC(C)=C(C(=O)OCC)C1c1ccc(C)cc1 | > 100 | – | 98.4 | > 100 | > 100 | 94.2 | > 100 | 51.5 | > 100 | > 100 | > 100 | > 100 | > 100
Cc1cc(=O)c2ccccc2n1CCCCCCCCCCn1c(C)cc(=O)c2ccccc21 | 47.7 | 51.9 | – | 56.2 | 56 | 32.9 | 35.1 | 38.5 | 30.2 | 25.6 | 27.8 | 46.1 | 43.1
O=C1C=C2CC[C@H]3[C@@H]4CC[C@H](Oc5c6ccccc6nc6ccccc56)[C@H]4CC[C@@H]3[C@H]2CC1 | > 100 | > 100 | > 100 | > 100 | > 100 | – | > 100 | 80.3 | > 100 | – | > 100 | > 100 | 75.2
NC(=S)N/N=C1\CCCCC1C(O)(C(F)(F)Cl)C(F)(F)Cl (centres undefined) | > 10 | > 10 | > 10 | > 10 | > 10 | > 10 | > 10 | > 10 | > 10 | – | > 10 | > 10 | > 10
CCCCN1C(=O)CS/C1=N/Nc1nc2c([nH]1)c(=O)n(C)c(=O)n2C | > 100 | > 100 | > 100 | > 100 | – | > 100 | > 100 | > 100 | > 100 | > 100 | 29.3 | > 100 | 36.6
Cc1ccc([N+](=O)[O-])cc1S(=O)(=O)Nc1ccc(C2=NN(S(=O)(=O)c3cc([N+](=O)[O-])ccc3C)C(c3ccco3)C2)cc1 (centres undefined) | > 100 | > 100 | > 100 | – | > 100 | > 100 | > 100 | 47.7 | – | > 100 | > 100 | > 100 | > 100
COc1ccc(/C=C2\CN(C)CC3C2=NN(c2ccccc2)C3c2ccc(OC)cc2)cc1 (centres undefined) | > 100 | > 100 | – | > 100 | > 100 | > 100 | > 100 | > 100 | 91.8 | > 100 | > 100 | > 100 | > 100
O=C1C2CC=CCC2C(=O)N1n1c(Cc2ccccc2)n[nH]c1=O (centres undefined) | > 100 | > 100 | > 100 | > 100 | > 100 | > 100 | – | > 100 | > 100 | > 100 | > 100 | > 100 | > 100
